Series [1] concerns the target T1, purified soybean lipoxygenase (LOX-1) (Glycine max, UniProt P08170).
T1 construct: Soybean lipoxygenase (LOX-1) is purified according to the method of Axelrod et al; from tissue; host or cells: soybean seeds (Hardee variety), dehulled and defatted
T1 sequence (P08170 1-839): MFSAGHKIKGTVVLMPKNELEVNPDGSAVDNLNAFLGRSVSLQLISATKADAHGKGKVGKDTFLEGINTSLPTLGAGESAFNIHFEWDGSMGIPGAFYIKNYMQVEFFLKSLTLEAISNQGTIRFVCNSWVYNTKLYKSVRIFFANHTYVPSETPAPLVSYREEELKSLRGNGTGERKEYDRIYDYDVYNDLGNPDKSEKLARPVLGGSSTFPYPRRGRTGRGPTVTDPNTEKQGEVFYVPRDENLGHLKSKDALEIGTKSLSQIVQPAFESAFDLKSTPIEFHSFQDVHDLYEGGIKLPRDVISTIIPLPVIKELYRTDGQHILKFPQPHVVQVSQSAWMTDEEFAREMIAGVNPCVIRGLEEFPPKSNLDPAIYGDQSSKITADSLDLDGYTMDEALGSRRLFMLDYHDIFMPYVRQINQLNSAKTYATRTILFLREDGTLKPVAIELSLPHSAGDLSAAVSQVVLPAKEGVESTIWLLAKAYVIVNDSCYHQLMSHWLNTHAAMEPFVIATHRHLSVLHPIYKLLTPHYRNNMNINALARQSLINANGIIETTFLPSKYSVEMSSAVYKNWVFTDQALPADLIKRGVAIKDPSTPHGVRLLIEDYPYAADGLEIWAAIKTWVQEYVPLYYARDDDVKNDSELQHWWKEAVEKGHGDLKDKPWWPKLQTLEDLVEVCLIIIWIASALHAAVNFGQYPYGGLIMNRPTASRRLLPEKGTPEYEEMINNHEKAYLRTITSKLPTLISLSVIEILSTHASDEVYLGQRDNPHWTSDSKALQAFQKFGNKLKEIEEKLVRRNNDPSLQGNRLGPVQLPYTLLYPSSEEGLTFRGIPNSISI
Briefly: Soybean lipoxygenase (LOX-1) inhibition, absorbance at 234 nm. Format: biochemical. To be noted: as stated in embodiment b50; read-out: IC50 against purified soybean lipoxygenase. As for the experimental part: Soybean lipoxygenase (LOX-1) is purified according to the method of Axelrod et al., lipoxygenase from soybeans. Methods in Enzymology 1981, 71, 441–451, using the Hardee variety of soybean, after dehulling and defatting by hexane. The substrate, sodium linoleate (10 mM) is prepared as follows:
To 70 mg of linoleic acid an equal weight of Tween-20 and 4 ml of oxygen free water is added and homogenized by drawing back and forth in a pasture pipette, avoiding air bubbles. Sufficient quantity of 0.5 N NaOH is added to this to yield a clear solution. The resulting sodium linoleate is divided into 1–2 mL portions in small screw cap vials, flushed with N2 before closing, and keep frozen until needed. Enzyme reaction is carried out at 25° C. in a quartz cuvette with a 1 cm light path. The assay mixture contained (2.975−x) ml of borate buffer (0.2 M, pH 9.0), 0.025 ml of sodium linoleate substrate, and x mL of enzyme. After each addition the mixture is stirred with a few strokes of a plastic paddler. The reference cuvette contained no enzyme. Absorption at 234 nm is recorded, and the reaction rate is determined from the slope of the straight-line portion of the curve.

A further series can be described thus: Solubility in solvents. Format: physicochemical. An excerpt: The compound is amorphous yellow powder.
In series [2] the target is T2, crude rat lens aldose reductase (Rattus norvegicus, UniProt P07943).
T2 construct: from tissue; host or cells: rat eye lens homogenate, 10,000 r.p.m. supernatant
The series is described as follows: Rat lens aldose reductase inhibition, decrease in absorbance at 340 nm. Format: biochemical. The note with it: as stated in embodiment b50; read-out: IC50 against crude rat lens aldose reductase. As for the experimental part: Lens are collected from rat eyes and homogenised with sodium, potassium phosphate buffer (0.135 M, pH 7.0) containing 0.5 mM of phenyl methyl sulphonyl fluoride and 10 mM of p-mercaptoethanol. The homogenate is centrifuged at 10,000 r.p.m for 30 minutes at 4° C. The supernatant is taken as enzyme source. Enzyme reaction is carried out at 25° C. in a quartz cuvette with a 1-cm light path. The assay mixture contained 100 μL of nicotinamide adenine dinucleotide phosphate tetra sodium salt (from a stock solution of 9.6 mM), 100 μL of DL-glyceraldehyde (from a stock solution of 250 mM), 10 μL of inhibitor dissolved in dimethyl sulphoxide, sodium-potassium-phosphate buffer (0.135 M, pH 7.0) to make up the total volume to […] and the reaction is initiated by the addition of 200 μL of enzyme solution. The enzyme reaction is monitored by the decrease in absorbency at 340 nm and compared with enzyme reaction without inhibitor.

Structures are written as SMILES. “Also recorded” adds a separate entry of the source.

As usually defined, the IC50 is the concentration that inhibits the measured activity by half. Take `C/C=C/c1c(C)c(OC)c(C(=O)O)c(C(N)=O)c1O` [compound 1, 2-amido, 3-hydroxy, 4-propene, 5-methyl, 6-methoxy benzoic acid]: the IC50 in series [1] is 79 µM; in series [2], 69 µM. In “Solubility in solvents” (chloroform, hexane), the “solubility in chloroform and hexane” value was “sparingly soluble; also recorded: slightly soluble”. The “solubility in organic solvents” value in the series “Solubility in solvents” (ethanol, methanol, ethyl acetate, dimethyl sulphoxide) was “soluble”. The “solubility in aqueous alkaline solution” value in “Solubility in solvents” (sodium bicarbonate, sodium carbonate, sodium hydroxide solution (b24 also potassium bicarbonate, potassium carbonate, lithium hydroxide, potassium hydroxide)) is reported as “soluble”. The solubility in water entry in the series “Solubility in solvents” (water) is given as “insoluble”.
